Source: patent US20060069132A1, “Azolecarboxamide herbicides” (priority 2004, published 2006)

Assays:
[1] = test system: giant foxtail; experiment: Test B pre-/postemergence herbicide test; format: in vivo, Setaria faberi
Method in brief: (§1)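 Response was scored visually 13 to 15 days after treatment against untreated greenhouse controls, 0 meaning no effect and 100 complete control. Formulations (solvent mixture plus surfactant) went onto soil after planting, onto foliage of 1- to 4-leaf plants, and onto 2-leaf plants in a flooded paddy set including rice and barnyardgrass.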

[2] = test system: rice; experiment: Test B flooded paddy test; format: in vivo, Oryza sativa; conditions: 1000 g ai/ha, visual rating, scale 0 to 100 (0 no effect, 100 complete control), 13 to 15 days
Method in brief: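 Postemergence plants were sprayed with formulated test chemicals at 2 to 18 cm height (1- to 4-leaf stage); paddy species were grown to the 2-leaf stage. After 13 to 15 days in a greenhouse, injury was rated visually against untreated controls on a 0–100 scale (0 = no effect, 100 = complete control).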

[3] = test system: barnyardgrass; experiment: Test B pre-/postemergence herbicide test; format: in vivo, Echinochloa crus-galli
Method in brief: (§2)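 Evaluation is visual, comparing treated with control plants on a scale where 0 means no effect and 100 means full control. Treatments were preemergence, or postemergence on seedlings 2–18 cm tall, and held 13–15 days in the greenhouse.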

[4] = test system: morningglory; experiment: Test B pre-/postemergence herbicide test; format: in vivo, Ipomoea coccinea; conditions: for Morningglory plant response rating: postemergence, visual rating
Method in brief: as §2

[5] = test system: Surinam grass; experiment: Test B pre-/postemergence herbicide test; format: in vivo, Urochloa decumbens; conditions: for Surinam Grass plant response rating: postemergence, visual rating
Method in brief: as §1

[6] = test system: rice; experiment: Test B pre-/postemergence herbicide test; format: in vivo, Oryza sativa; conditions: preemergence
Source text: Seeds selected from barnyardgrass (Echinochloa crus-galli (L.) Beauv.), Surinam grass (Urochloa decumbens (Staph) R. D. Webster, previously named Brachiaria decumbens Stapf), cocklebur (Xanthium strumarium L.), corn (Zea mays L.), large crabgrass (Digitaria sanguinalis (L.) Scop.), giant foxtail (Setaria faberi Herim.), lambsquarters (Chenopodium album L.), morningglory (Ipomoea coccinea L.), pigweed (Amaranthus retroflexus L.), rice (Oryza sativa L.) and velvetleaf (Abutilon theophrasti Medik.) were planted and treated preemergence with test chemicals formulated in a non-phytotoxic solvent mixture which included a surfactant.
At the same time, plants selected from these crop and weed species and also blackgrass (Alopecurus myosuroides Huds.), wheat (Triticum aestivum L.) and wild oat (Avena fatua L.) were treated with postemergence applications of test chemicals formulated in the same manner. Plants ranged in height from 2 to 18 cm (1- to 4-leaf stage) for postemergence treatments. Plant species in the flooded paddy test consisted of rice (Oryza sativa L.), small flower umbrella sedge (Cyperus difformis L.), ducksalad (Heteranthera limosa (Sw.) Willd.) and barnyardgrass (Echinochloa crus-galli (L.) Beauv.) grown to the 2-leaf stage for testing. Treated plants and controls were maintained in a greenhouse for 13 to 15 days, after which time all species were compared to controls and visually evaluated. Plant response ratings, summarized in Table B, are based on a scale of 0 to 100 where 0 is no effect and 100 is complete control. A dash (-) response means no test result.

[7] = test system: lambsquarters; experiment: Test B pre-/postemergence herbicide test; format: in vivo, Chenopodium album; conditions: for Lambsquarters plant response rating: postemergence, visual rating
Method in brief: as §1

[8] = test system: blackgrass; experiment: Test B postemergence herbicide test; format: in vivo, Alopecurus myosuroides; conditions: scale 0 (no effect) to 100 (complete control); for Plant response rating, Blackgrass: Postemergence, 500 g ai/ha, visual rating after 13 to 15 days; for Blackgrass plant response rating: postemergence, 125 g ai/ha, visual rating
Method in brief: (§3)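 Each value is a visual 0–100 response rating taken against controls 13 to 15 days after treatment in the greenhouse. Plants received formulated chemical postemergence at the 1- to 4-leaf stage or, in flooded paddy, at the 2-leaf stage.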

[9] = test system: barnyardgrass; experiment: Test B flooded paddy test; format: in vivo, Echinochloa crus-galli; conditions: 1000 g ai/ha, visual rating, scale 0 to 100 (0 no effect, 100 complete control), 13 to 15 days
Method in brief: as §3

[10] = test system: wheat; experiment: Test B postemergence herbicide test; format: in vivo, Triticum aestivum; parameters: key to Wheat plant response rating: 0 = no effect, 100 = complete control; conditions: scale 0 (no effect) to 100 (complete control); for Plant response rating, Wheat: Postemergence, 500 g ai/ha, visual rating after 13 to 15 days; for Wheat plant response rating: postemergence, 125 g ai/ha, visual rating
Method in brief: (§4)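 Read-out: visual comparison with controls, scored 0 to 100, where 100 means complete control and 0 no effect. Formulated chemicals were applied postemergence to plants 2–18 cm tall (1- to 4-leaf), or to flooded-paddy plants at the 2-leaf stage, then held 13 to 15 days under glass.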

[11] = test system: pigweed; experiment: Test B pre-/postemergence herbicide test; format: in vivo, Amaranthus retroflexus; conditions: for Pigweed plant response rating: postemergence, visual rating
Method in brief: as §1

[12] = test system: small flower umbrella sedge; experiment: Test B flooded paddy test; format: in vivo, Cyperus difformis; conditions: 1000 g ai/ha, visual rating, scale 0 to 100 (0 no effect, 100 complete control), 13 to 15 days
Method in brief: as §3

[13] = test system: large crabgrass; experiment: Test B pre-/postemergence herbicide test; format: in vivo, Digitaria sanguinalis
Method in brief: as §1

[14] = test system: ducksalad; experiment: Test B flooded paddy test; format: in vivo, Heteranthera limosa; conditions: 1000 g ai/ha, visual rating, scale 0 to 100 (0 no effect, 100 complete control), 13 to 15 days
Method in brief: as §3

[15] = test system: wild oat; experiment: Test B postemergence herbicide test; format: in vivo, Avena fatua; conditions: scale 0 (no effect) to 100 (complete control); for Plant response rating, Oat, Wild: Postemergence, 500 g ai/ha, visual rating after 13 to 15 days; for Oat, Wild plant response rating: postemergence, 125 g ai/ha, visual rating
Method in brief: as §4

[16] = test system: velvetleaf; experiment: Test B pre-/postemergence herbicide test; format: in vivo, Abutilon theophrasti; conditions: for Velvetleaf plant response rating: postemergence, visual rating
Method in brief: as §1

[17] = test system: corn; experiment: Test B pre-/postemergence herbicide test; format: in vivo, Zea mays
Method in brief: as §1

[18] = test system: cocklebur; experiment: Test B pre-/postemergence herbicide test; format: in vivo, Xanthium strumarium
Method in brief: as §2

[19] = Postemergence, 500 g ai/ha, visual rating after 13 to 15 days, scale 0 (no effect) to 100 (complete control)
[20] = Preemergence, 500 g ai/ha, scale 0 to 100
[21] = postemergence, 125 g ai/ha, visual rating, scale 0 (no effect) to 100 (complete control)
[22] = preemergence, 125 g ai/ha, 0 to 100 scale, 0 is no effect, 100 is complete control
[23] = 125 g ai/ha, scale 0 (no effect) to 100 (complete control)
[24] = 125 g ai/ha, 0 to 100 scale, 0 is no effect, 100 is complete control
[25] = 500 g ai/ha, visual rating 0-100, 0 no effect, 100 complete control, preemergence

Compound: CCn1nc(C(C)(C)C)cc1C(=O)Nc1cc(C(=O)OC(C)C)c(OC)cc1F [Compound 77]
- Plant response rating, Foxtail, Giant [1, 19]: 40
- Foxtail, Giant plant response rating [1, 20]: 60
- Foxtail, Giant plant response rating [1, 21]: 0
- Plant response rating, Foxtail, Giant [1, 22]: 0
- Rice plant response rating [2]: 70
- Plant response rating, Barnyardgrass [3, 19]: 0
- Barnyardgrass plant response rating [3, 20]: 70
- Barnyardgrass plant response rating [3, 21]: 0
- Plant response rating, Barnyardgrass [3, 22]: 0
- Plant response rating, Morningglory [4, 19]: 70
- Morningglory plant response rating [4, 23]: 0
- Plant response rating, Morningglory [4, 22]: 0
- Plant response rating, Surinam Grass [5, 19]: 20
- Surinam Grass plant response rating [5, 23]: 0
- Plant response rating, Surinam Grass [5, 22]: 0
- Plant response rating, Rice [6, 24]: 0
- Plant response rating, Lambsquarters [7, 19]: 90
- Lambsquarters plant response rating [7, 23]: 50
- Plant response rating, Lambsquarters [7, 22]: 60
- Plant response rating, Blackgrass [8]: 30
- Blackgrass plant response rating [8]: 20
- Barnyardgrass plant response rating [9]: 40
- Plant response rating, Wheat [10]: 20
- Wheat plant response rating [10]: 10
- Plant response rating, Pigweed [11, 19]: 90
- Pigweed plant response rating [11, 23]: 70
- Plant response rating, Pigweed [11, 22]: 90
- Sedge, Umbrella plant response rating [12]: 80
- Plant response rating, Crabgrass, Large [13, 19]: 40
- Crabgrass, Large plant response rating [13, 20]: 80
- Crabgrass, Large plant response rating [13, 21]: 0
- Plant response rating, Crabgrass, Large [13, 22]: 0
- Ducksalad plant response rating [14]: 40
- Plant response rating, Oat, Wild [15]: 40
- Oat, Wild plant response rating [15]: 40
- Plant response rating, Velvetleaf [16, 19]: 30
- Velvetleaf plant response rating [16, 23]: 20
- Plant response rating, Velvetleaf [16, 22]: 0
- Plant response rating, Corn [17, 19]: 10
- Corn plant response rating [17, 20]: 40
- Corn plant response rating [17, 21]: 10
- Plant response rating, Corn [17, 22]: 0
- Plant response rating, Cocklebur [18, 19]: 0
- Cocklebur plant response rating [18, 20]: 0
- Cocklebur plant response rating [18, 21]: 0
- Plant response rating, Cocklebur [18, 22]: 0

Compound: CCn1nc(C(C)(C)C)cc1C(=O)Nc1ccc(C)c(C(=O)OC(C)C)c1 [Compound 100]
- Plant response rating, Foxtail, Giant [1, 25]: 0
- Plant response rating, Foxtail, Giant [1, 19]: 0
- Foxtail, Giant plant response rating [1, 21]: 0
- Plant response rating, Foxtail, Giant [1, 22]: 0
- Rice plant response rating [2]: 0
- Plant response rating, Barnyardgrass [3, 25]: 0
- Plant response rating, Barnyardgrass [3, 19]: 0
- Barnyardgrass plant response rating [3, 21]: 0
- Plant response rating, Barnyardgrass [3, 22]: 0
- Plant response rating, Morningglory [4, 25]: 0
- Plant response rating, Morningglory [4, 19]: 0
- Morningglory plant response rating [4, 23]: 0
- Plant response rating, Morningglory [4, 22]: 0
- Plant response rating, Surinam Grass [5, 25]: 0
- Plant response rating, Surinam Grass [5, 19]: 20
- Surinam Grass plant response rating [5, 23]: 0
- Plant response rating, Surinam Grass [5, 22]: 0
- Plant response rating, Rice ([6]; 500 g ai/ha, visual rating 0-100, 0 no effect, 100 complete control): 0
- Plant response rating, Rice [6, 24]: 0
- Plant response rating, Lambsquarters [7, 25]: 0
- Plant response rating, Lambsquarters [7, 19]: 50
- Lambsquarters plant response rating [7, 23]: 0
- Plant response rating, Lambsquarters [7, 22]: 0
- Plant response rating, Blackgrass [8]: 30
- Blackgrass plant response rating [8]: 10
- Barnyardgrass plant response rating [9]: 0
- Plant response rating, Wheat [10]: 10
- Wheat plant response rating [10]: 10
- Plant response rating, Pigweed [11, 25]: 0
- Plant response rating, Pigweed [11, 19]: 60
- Pigweed plant response rating [11, 23]: 0
- Plant response rating, Pigweed [11, 22]: 0
- Sedge, Umbrella plant response rating [12]: 0
- Plant response rating, Crabgrass, Large [13, 25]: 0
- Plant response rating, Crabgrass, Large [13, 19]: 0
- Crabgrass, Large plant response rating [13, 21]: 0
- Plant response rating, Crabgrass, Large [13, 22]: 0
- Ducksalad plant response rating [14]: 0
- Plant response rating, Oat, Wild [15]: 40
- Oat, Wild plant response rating [15]: 20
- Plant response rating, Velvetleaf [16, 25]: 0
- Plant response rating, Velvetleaf [16, 19]: 0
- Velvetleaf plant response rating [16, 23]: 0
- Plant response rating, Velvetleaf [16, 22]: 0
- Plant response rating, Corn [17, 25]: 0
- Plant response rating, Corn [17, 19]: 0
- Corn plant response rating [17, 21]: 0
- Plant response rating, Corn [17, 22]: 0
- Plant response rating, Cocklebur [18, 25]: 0
- Plant response rating, Cocklebur [18, 19]: 0
- Cocklebur plant response rating [18, 21]: 0
- Plant response rating, Cocklebur [18, 22]: 0
